From patent US20230257372A1 (CHONG KUN DANG PHARMACEUTICAL CORP., priority 2020, published 2023)
Like-named read-outs stand apart in the source and are kept apart here.

Columns and labels:
[1] = target: T1, human recombinant HDAC1 (Homo sapiens, UniProt Q13547); test: HDAC1 enzyme activity inhibition (HDAC Fluorimetric Drug Discovery Kit); type: biochemical; conditions: read-out: HDAC1
T1 construct: purchased Enzo Life Science, Inc. BML-SE456
Procedure, shortened: (§1)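 Five-fold compound dilutions incubated with […] recombinant enzyme and 10 μM fluorogenic Fluor de Lys substrate, 60 min at 30° C. Fluor de Lys Developer II then added for 30 min to generate the fluorescent read-out.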

[2] = target: T2, human recombinant HDAC6 (Homo sapiens, UniProt Q9UBN7); test: HDAC6 enzyme activity inhibition (HDAC Fluorimetric Drug Discovery Kit); type: biochemical
T2 construct: purchased Calbiochem Inc. 382180
T2 sequence (Q9UBN7 1-1215): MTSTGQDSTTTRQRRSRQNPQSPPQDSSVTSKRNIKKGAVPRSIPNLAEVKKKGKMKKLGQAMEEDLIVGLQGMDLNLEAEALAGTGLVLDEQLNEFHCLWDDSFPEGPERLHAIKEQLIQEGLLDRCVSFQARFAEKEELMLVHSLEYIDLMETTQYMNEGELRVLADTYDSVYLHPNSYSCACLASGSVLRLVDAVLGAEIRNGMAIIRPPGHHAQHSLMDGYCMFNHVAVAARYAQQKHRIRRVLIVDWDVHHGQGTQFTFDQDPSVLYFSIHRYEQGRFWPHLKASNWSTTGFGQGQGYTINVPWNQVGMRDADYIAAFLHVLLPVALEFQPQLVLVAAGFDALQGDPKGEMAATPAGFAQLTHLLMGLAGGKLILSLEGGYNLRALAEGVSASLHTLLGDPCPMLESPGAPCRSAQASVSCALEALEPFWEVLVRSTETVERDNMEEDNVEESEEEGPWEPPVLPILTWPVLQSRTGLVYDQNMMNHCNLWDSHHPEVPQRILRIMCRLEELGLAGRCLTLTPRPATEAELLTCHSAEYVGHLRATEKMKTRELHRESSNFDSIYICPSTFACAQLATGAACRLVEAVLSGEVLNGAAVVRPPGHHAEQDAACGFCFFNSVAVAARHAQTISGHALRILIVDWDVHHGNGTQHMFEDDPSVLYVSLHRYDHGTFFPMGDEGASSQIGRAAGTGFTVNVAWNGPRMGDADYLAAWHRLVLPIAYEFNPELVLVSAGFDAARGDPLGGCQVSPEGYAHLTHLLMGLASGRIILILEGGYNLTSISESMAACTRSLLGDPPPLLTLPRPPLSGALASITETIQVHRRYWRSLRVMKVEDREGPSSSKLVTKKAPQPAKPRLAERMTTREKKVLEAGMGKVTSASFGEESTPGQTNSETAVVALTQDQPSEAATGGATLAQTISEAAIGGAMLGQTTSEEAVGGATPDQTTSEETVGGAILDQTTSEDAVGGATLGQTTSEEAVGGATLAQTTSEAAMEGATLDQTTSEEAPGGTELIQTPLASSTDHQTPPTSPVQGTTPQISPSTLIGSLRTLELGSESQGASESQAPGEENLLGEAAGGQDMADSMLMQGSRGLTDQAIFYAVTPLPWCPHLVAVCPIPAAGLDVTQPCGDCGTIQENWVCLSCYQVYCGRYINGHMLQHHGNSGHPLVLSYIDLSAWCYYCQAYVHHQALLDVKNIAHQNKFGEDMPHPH
Procedure, shortened: as §1

[3] = human recombinant HDAC1, Fluor de Lys substrate, 30° C. 60 minutes
[4] = human recombinant HDAC6, same protocol as HDAC1
[5] = human recombinant HDAC1, IC50 calculated with GraphPad Prism
[6] = human recombinant HDAC6, IC50 calculated with GraphPad Prism

T1 sequence (Q13547 whole entry): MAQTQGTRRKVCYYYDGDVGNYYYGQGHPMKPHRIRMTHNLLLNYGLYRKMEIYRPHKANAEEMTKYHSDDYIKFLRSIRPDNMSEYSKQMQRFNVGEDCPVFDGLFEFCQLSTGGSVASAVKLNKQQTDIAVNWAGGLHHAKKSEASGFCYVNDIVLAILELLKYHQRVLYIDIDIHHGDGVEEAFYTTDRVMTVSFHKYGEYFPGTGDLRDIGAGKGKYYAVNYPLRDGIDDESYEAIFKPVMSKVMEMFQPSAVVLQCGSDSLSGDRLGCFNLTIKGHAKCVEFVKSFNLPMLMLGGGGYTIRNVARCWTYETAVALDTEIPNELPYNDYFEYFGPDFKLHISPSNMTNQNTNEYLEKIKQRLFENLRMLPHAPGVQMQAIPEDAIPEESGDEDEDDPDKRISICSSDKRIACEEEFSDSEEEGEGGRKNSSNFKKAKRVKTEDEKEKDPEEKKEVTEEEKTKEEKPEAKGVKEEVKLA

Structure (SMILES)	IC50 [1, 3]	HDAC6 selectivity (fold) ([2]; HDAC6 over HDAC1)	IC50 [2, 4]	IC50 [1, 5]	HDAC6 selectivity (fold) ([2]; HDAC1 IC50 / HDAC6 IC50)	IC50 [2, 6]
CCN1CCN(c2cc(-c3cn(Cc4ccc(-c5nnc(C(F)F)o5)cn4)nn3)ccn2)CC1 [Compound 4591, 2-(difluoromethyl)-5-(6-((4-(2-(4-ethylpiperazin-1-yl)pyridin-4-yl)-1H-1,2,3-triazol-1-yl)methyl)pyridin-3-yl)-1,3,4-oxadiazole]	> 50000 nM	3546 fold	14.1 nM	–	–	–
CCN1CCN(Cc2ccc(-c3cn(Cc4ccc(-c5nnc(C(F)F)o5)cc4)nn3)cc2)CC1 [Compound 4553, 2-(difluoromethyl)-5-(4-((4-(4-((4-ethylpiperazin-1-yl)methyl)phenyl)-1H-1,2,3-triazol-1-yl)methyl)phenyl)-1,3,4-oxadiazole]	> 50000 nM	986 fold	50.7 nM	–	–	–
CCC(=O)N1CC(c2cn(Cc3ccc(-c4nnc(C(F)F)o4)cn3)nn2)C1 [Compound 3957, 1-(3-(1-((5-(5-(difluoromethyl)-1,3,4-oxadiazol-2-yl)pyridin-2-yl)methyl)-1H-1,2,3-triazol-4-yl)azetidin-1-yl)propan-1-one]	–	–	–	> 50000 nM	100 fold	496 nM
CN(C)[C@H]1CCN(Cc2ccc(-c3cn(Cc4ccc(-c5nnc(C(F)F)o5)cc4F)nn3)cc2)C1 [Compound 4604, (S)-1-(4-(1-(4-(5-(difluoromethyl)-1,3,4-oxadiazol-2-yl)-2-fluorobenzyl)-1H-1,2,3-triazol-4-yl)benzyl)-N,N-dimethylpyrrolidin-3-amine]	> 50000 nM	2347 fold	21.3 nM	–	–	–
FC(F)c1nnc(-c2ccc(Cn3cc(-c4ccc(CNC5COC5)cc4)nn3)nc2)o1 [Compound 4566, N-(4-(1-((5-(5-(difluoromethyl)-1,3,4-oxadiazol-2-yl)pyridin-2-yl)methyl)-1H-1,2,3-triazol-4-yl)benzyl)oxetan-3-amine]	> 50000 nM	1256 fold	39.8 nM	–	–	–
FC(F)c1nnc(-c2ccc(Cn3cc(-c4cccc(N5C[C@@H]6C[C@H]5CN6)c4)nn3)cc2)o1 [Compound 4317, 2-(4-((4-(3-((1S,4S)-2,5-diazabicyclo[2.2.1]heptan-2-yl)phenyl)-1H-1,2,3-triazol-1-yl)methyl)phenyl)-5-(difluoromethyl)-1,3,4-oxadiazole]	–	–	–	> 50000 nM	598 fold	83.6 nM
Fc1cc(-c2nnc(C(F)F)o2)ccc1Cn1cc(-c2csc(CN3CCCC3)c2)nn1 [Compound 18187, 2-(difluoromethyl)-5-(3-fluoro-4-((4-(5-(pyrrolidin-1-ylmethyl)thiophen-3-yl)-1H-1,2,3-triazol-1-yl)methyl)phenyl)-1,3,4-oxadiazole]	> 50000 nM	605 fold	82.6 nM	–	–	–
FC(F)c1nnc(-c2ccc(Cn3cc(-c4cccc5[nH]ccc45)nn3)cc2)o1 [Compound 4078, 2-(4-((4-(1H-indol-4-yl)-1H-1,2,3-triazol-1-yl)methyl)phenyl)-5-(difluoromethyl)-1,3,4-oxadiazole]	–	–	–	> 50000 nM	1424 fold	35.1 nM
CC(C)N1CCN(Cc2cccc(-c3cn(Cc4ccc(-c5nnc(C(F)F)o5)cc4)nn3)c2)CC1 [Compound 4416, 2-(difluoromethyl)-5-(4-((4-(3-((4-isopropylpiperazin-1-yl)methyl)phenyl)-1H-1,2,3-triazol-1-yl)methyl)phenyl)-1,3,4-oxadiazole]	–	–	–	> 50000 nM	427 fold	112 nM
CC(C)N1CCN(c2cccc(-c3cn(Cc4ccc(-c5nnc(C(F)F)o5)cn4)nn3)c2F)CC1 [Compound 4571, 2-(difluoromethyl)-5-(6-((4-(2-fluoro-3-(4-isopropylpiperazin-1-yl)phenyl)-1H-1,2,3-triazol-1-yl)methyl)pyridin-3-yl)-1,3,4-oxadiazole]	> 50000 nM	2732 fold	18.3 nM	–	–	–
Fc1ccc(-c2cn(Cc3ccc(-c4nnc(C(F)F)o4)cc3)nn2)cc1N1CCNCC1 [Compound 4396, 2-(difluoromethyl)-5-(4-((4-(4-fluoro-3-(piperazin-1-yl)phenyl)-1H-1,2,3-triazol-1-yl)methyl)phenyl)-1,3,4-oxadiazole]	–	–	–	> 50000 nM	619 fold	80.7 nM

Further lines, results first:

IC50 [1, 3]	HDAC6 selectivity (fold) ([2]; HDAC6 over HDAC1)	IC50 [2, 4]	IC50 [1, 5]	HDAC6 selectivity (fold) ([2]; HDAC1 IC50 / HDAC6 IC50)	IC50 [2, 6]	Structure (SMILES)
–	–	–	> 50000 nM	1831 fold	27.3 nM	C[C@@H]1CN(c2cccc(-c3cn(Cc4ccc(-c5nnc(C(F)F)o5)cc4F)nn3)c2)C[C@H](C)N1 [Compound 4439, 2-(difluoromethyl)-5-(4-((4-(3-((3R,5S)-3,5-dimethylpiperazin-1-yl)phenyl)-1H-1,2,3-triazol-1-yl)methyl)-3-fluorophenyl)-1,3,4-oxadiazole]
> 50000 nM	367 fold	136 nM	–	–	–	CN1CC(N2CCC(c3cccc(-c4cn(Cc5ncc(-c6nnc(C(F)F)o6)cc5F)nn4)c3)CC2)C1 [Compound 18877, 2-(difluoromethyl)-5-(5-fluoro-6-((4-(3-(1-(1-methylazetidin-3-yl)piperidin-4-yl)phenyl)-1H-1,2,3-triazol-1-yl)methyl)pyridin-3-yl)-1,3,4-oxadiazole]
> 50000 nM	2032 fold	24.6 nM	–	–	–	FC(F)c1nnc(-c2ccc(Cn3cc(-c4cccc(C5CN(C6COC6)C5)c4)nn3)nc2)o1 [Compound 4505, 2-(difluoromethyl)-5-(6-((4-(3-(1-(oxetan-3-yl)azetidin-3-yl)phenyl)-1H-1,2,3-triazol-1-yl)methyl)pyridin-3-yl)-1,3,4-oxadiazole]
–	–	–	> 50000 nM	1039 fold	48.1 nM	CCC(=O)N1CCN(c2cccc(-c3cn(Cc4ccc(-c5nnc(C(F)F)o5)cc4F)nn3)c2)CC1 [Compound 4377, 1-(4-(3-(1-(4-(5-(difluoromethyl)-1,3,4-oxadiazol-2-yl)-2-fluorobenzyl)-1H-1,2,3-triazol-4-yl)phenyl)piperazin-1l-yl)propan-1l-one]
> 50000 nM	90 fold	551 nM	–	–	–	CC(C)(C)OC(=O)N1CCC(c2cccc(-c3cn(Cc4ncc(-c5nnc(C(F)F)o5)cc4F)nn3)c2)CC1 [Compound 18868, tert-butyl 4-(3-(1-((5-(5-(difluoromethyl)-1,3,4-oxadiazol-2-yl)-3-fluoropyridin-2-yl)methyl)-1H-1,2,3-triazol-4-yl)phenyl)piperidin-1-carboxylate]
> 50000 nM	554 fold	90.1 nM	–	–	–	CN(C)Cc1cccc(-c2cn(Cc3ncc(-c4nnc(C(F)F)o4)cc3F)nn2)c1 [Compound 18457, 1-(3-(1-((5-(5-(difluoromethyl)-1,3,4-oxadiazol-2-yl)-3-fluoropyridin-2-yl)methyl)-1H-1,2,3-triazol-4-yl)phenyl)-N,N-dimethylmethanamine]
> 50000 nM	606 fold	82.4 nM	–	–	–	Fc1cc(-c2nnc(C(F)F)o2)cnc1Cn1cc(-c2ccc(CN3CCC3)cn2)nn1 [Compound 18622, 2-(6-((4-(5-(azetidin-1-ylmethyl)pyridin-2-yl)-1H-1,2,3-triazol-1-yl)methyl)-5-fluoropyridin-3-yl)-5-(difluoromethyl)-1,3,4-oxadiazole]
–	–	–	> 50000 nM	2262 fold	22.1 nM	CC(C)(C)OC(=O)NC(C)(C)C(=O)Nc1cccc(-c2cn(Cc3ccc(-c4nnc(C(F)F)o4)cn3)nn2)c1 [Compound 4495]
–	–	–	> 50000 nM	1385 fold	36.1 nM	CN1CCc2ccc(-c3cn(Cc4ccc(-c5nnc(C(F)F)o5)cc4F)nn3)cc2C1 [Compound 4363, 2-(difluoromethyl)-5-(3-fluoro-4-((4-(2-methyl-1,2,3,4-tetrahydroisoquinolin-7-yl)-1H-1,2,3-triazol-1-yl)methyl)phenyl)-1,3,4-oxadiazole]
